Reference: ChEMBL document CHEMBL3045084, “Synthesis, antitubercular activity, and QSAR analysis of substituted nitroaryl analogs: chalcone, pyrazole, isoxazole, and pyrimidines” (2013)
Converted amounts (≈) assume the structure as drawn.

System: Mycobacterium tuberculosis
Experiment: Antitubercular activity against Mycobacterium tuberculosis H37Rv ATCC 27294 assessed as growth inhibition after 28 days by agar dilution method
Format: functional
Conditions: for MIC: Mycobacterium tuberculosis, H37Rv ATCC 27294, 672 h

Row | Compound | -logMIC | MIC
1 | O=[N+]([O-])c1ccc(C2=NC(=S)NC(c3ccc(Cl)cc3)C2)cc1 (stereo not drawn) | 4.439 | 36.2 µM (≈ 12.5 µg/mL)
2 | CO[C@H]1/C=C/O[C@@]2(C)Oc3c(C)c(O)c4c(O)c(c(/C=N/N5CCN(C)CC5)c(O)c4c3C2=O)NC(=O)/C(C)=C\C=C\[C@H](C)[C@H](O)[C@@H](C)[C@@H](O)[C@@H](C)[C@H](OC(C)=O)[C@@H]1C [RIFAMPIN] | 6.924 | 0.119 µM (≈ 0.0979 µg/mL)
3 | COc1ccc(OC)c(C2CC(c3ccc([N+](=O)[O-])cc3)=NN2)c1 (stereo not drawn) | 3.813 | 154 µM (≈ 50.4 µg/mL)
4 | COc1ccc(C2CC(c3ccc([N+](=O)[O-])cc3)=NN2)cc1OC (stereo not drawn) | 3.813 | 154 µM (≈ 50.4 µg/mL)
5 | CN(C)c1ccc(C2CC(c3ccc([N+](=O)[O-])cc3)=NC(=S)N2)cc1 (stereo not drawn) | 3.848 | 141 µM (≈ 50.1 µg/mL)
6 | CN(C)c1ccc(/C=C/C(=O)c2ccc([N+](=O)[O-])cc2)cc1 | 4.074 | 84.5 µM (≈ 25 µg/mL)
7 | O=[N+]([O-])c1ccc(C2=NOC(c3cccc(Cl)c3)C2)cc1 (stereo not drawn) |  | > 83.3 µM
8 | CN(C)c1ccc(C2CC(c3ccc([N+](=O)[O-])cc3)=NN2)cc1 (stereo not drawn) | 3.489 | 323 µM (≈ 100 µg/mL)
9 | O=C1N=C(c2ccc([N+](=O)[O-])cc2)CC(c2ccc(Cl)cc2Cl)N1 (stereo not drawn) | 4.462 | 34.3 µM (≈ 12.5 µg/mL)
10 | O=[N+]([O-])c1ccc(C2=NNC(c3cccc(Cl)c3)C2)cc1 (stereo not drawn) | 4.079 | 83.6 µM (≈ 25.2 µg/mL)
11 | COc1ccc(OC)c(C2CC(c3ccc([N+](=O)[O-])cc3)=NC(=S)N2)c1 (stereo not drawn) | 3.869 | 135 µM (≈ 50.1 µg/mL)
12 | O=[N+]([O-])c1ccc(C2=NNC(c3ccc(F)cc3)C2)cc1 (stereo not drawn) | 4.355 | 44.2 µM (≈ 12.6 µg/mL)
13 | O=C(/C=C/c1ccc(F)cc1)c1ccc([N+](=O)[O-])cc1 | 4.938 | 11.6 µM (≈ 3.13 µg/mL)
14 | COc1ccc(C2CC(c3ccc([N+](=O)[O-])cc3)=NO2)cc1OC (stereo not drawn) | 4.116 | 76.7 µM (≈ 25.2 µg/mL)
15 | O=C1N=C(c2ccc([N+](=O)[O-])cc2)CC(c2ccc(F)cc2)N1 (stereo not drawn) | 4.697 | 20 µM (≈ 6.26 µg/mL)
16 | COc1ccc(C2CC(c3ccc([N+](=O)[O-])cc3)=NC(=O)N2)cc1OC (stereo not drawn) | 3.548 | 282 µM (≈ 100 µg/mL)
17 | COc1cc(C2CC(c3ccc([N+](=O)[O-])cc3)=NN2)cc(OC)c1OC (stereo not drawn) | 3.852 | 141 µM (≈ 50.3 µg/mL)
18 | O=[N+]([O-])c1ccc(C2=NOC(c3ccc(Cl)cc3Cl)C2)cc1 (stereo not drawn) | 4.428 | 37.3 µM (≈ 12.6 µg/mL)
19 | O=[N+]([O-])c1ccc(C2=NC(=S)NC(c3ccc(Br)cc3)C2)cc1 (stereo not drawn) | 4.492 | 32 µM (≈ 12.5 µg/mL)
20 | O=C(/C=C/c1cccc(Cl)c1)c1ccc([N+](=O)[O-])cc1 | 4.362 | 43.5 µM (≈ 12.5 µg/mL)
21 | O=C(/C=C/c1ccc(Cl)cc1)c1ccc([N+](=O)[O-])cc1 | 4.362 | 43.5 µM (≈ 12.5 µg/mL)
22 | CN(C)c1ccc(C2CC(c3ccc([N+](=O)[O-])cc3)=NC(=O)N2)cc1 (stereo not drawn) | 3.527 | 296 µM (≈ 100 µg/mL)
23 | CC[C@@H](CO)NCCN[C@@H](CC)CO [ETHAMBUTOL] | 5.117 | 7.63 µM (≈ 1.56 µg/mL)
24 | O=C(/C=C/c1ccc(Cl)cc1Cl)c1ccc([N+](=O)[O-])cc1 | 5.315 | 4.84 µM (≈ 1.56 µg/mL)
25 | O=[N+]([O-])c1ccc(C2=NOC(c3ccc(F)cc3)C2)cc1 (stereo not drawn) | 4.357 | 44 µM (≈ 12.6 µg/mL)
26 | O=[N+]([O-])c1ccc(C2=NNC(c3ccc(Br)cc3)C2)cc1 (stereo not drawn) | 4.139 | 72.7 µM (≈ 25.2 µg/mL)

Row | Compound | -logMIC | MIC
27 | O=[N+]([O-])c1ccc(C2=NOC(c3ccc(Cl)cc3)C2)cc1 (stereo not drawn) | 4.08 | 83.3 µM (≈ 25.2 µg/mL)
28 | COc1ccc(/C=C/C(=O)c2ccc([N+](=O)[O-])cc2)cc1 |  | > 88.3 µM
29 | COc1cccc(C2CC(c3ccc([N+](=O)[O-])cc3)=NN2)c1 (stereo not drawn) | 3.47 | 339 µM (≈ 101 µg/mL)
30 | O=[N+]([O-])c1ccc(C2=NC(=S)NC(c3ccc(Cl)cc3Cl)C2)cc1 (stereo not drawn) | 4.481 | 32.9 µM (≈ 12.5 µg/mL)
31 | NNC(=O)c1ccncc1 [ISONIAZID] | 6.447 | 0.357 µM (≈ 0.049 µg/mL)
32 | O=C1N=C(c2ccc([N+](=O)[O-])cc2)CC(c2ccc(Br)cc2)N1 (stereo not drawn) | 4.474 | 33.4 µM (≈ 12.5 µg/mL)
33 | COc1cc(C2CC(c3ccc([N+](=O)[O-])cc3)=NC(=S)N2)cc(OC)c1OC (stereo not drawn) | 3.601 | 249 µM (≈ 100 µg/mL)
34 | COc1cccc(C2CC(c3ccc([N+](=O)[O-])cc3)=NC(=O)N2)c1 (stereo not drawn) | 3.51 | 308 µM (≈ 100 µg/mL)
35 | COc1ccc(C2CC(c3ccc([N+](=O)[O-])cc3)=NC(=S)N2)cc1 (stereo not drawn) | 3.531 | 293 µM (≈ 100 µg/mL)
36 | O=[N+]([O-])c1ccc(C2=NNC(c3ccc(Cl)cc3)C2)cc1 (stereo not drawn) | 4.079 | 83.6 µM (≈ 25.2 µg/mL)
37 | COc1ccc(OC)c(C2CC(c3ccc([N+](=O)[O-])cc3)=NC(=O)N2)c1 (stereo not drawn) |  | > 282 µM
38 | O=C(/C=C/c1ccc(Br)cc1)c1ccc([N+](=O)[O-])cc1 | 5.026 | 9.43 µM (≈ 3.13 µg/mL)
39 | COc1ccc(C2CC(c3ccc([N+](=O)[O-])cc3)=NC(=S)N2)cc1OC (stereo not drawn) | 3.869 | 135 µM (≈ 50.1 µg/mL)
40 | O=[N+]([O-])c1ccc(C2=NC(=S)NC(c3ccc(F)cc3)C2)cc1 (stereo not drawn) | 4.418 | 38 µM (≈ 12.5 µg/mL)
41 | COc1ccc(OC)c(/C=C/C(=O)c2ccc([N+](=O)[O-])cc2)c1 | 4.098 | 79.9 µM (≈ 25 µg/mL)
42 | COc1cccc(C2CC(c3ccc([N+](=O)[O-])cc3)=NO2)c1 (stereo not drawn) |  | > 169 µM
43 | O=[N+]([O-])c1ccc(C2=NC(=S)NC(c3cccc(Cl)c3)C2)cc1 (stereo not drawn) | 4.138 | 72.5 µM (≈ 25.1 µg/mL)
44 | COc1cccc(/C=C/C(=O)c2ccc([N+](=O)[O-])cc2)c1 | 4.054 | 88.3 µM (≈ 25 µg/mL)
45 | COc1cccc(C2CC(c3ccc([N+](=O)[O-])cc3)=NC(=S)N2)c1 (stereo not drawn) | 3.531 | 293 µM (≈ 100 µg/mL)
46 | COc1ccc(C2CC(c3ccc([N+](=O)[O-])cc3)=NC(=O)N2)cc1 (stereo not drawn) | 3.811 | 154 µM (≈ 50.1 µg/mL)
47 | O=[N+]([O-])c1ccc(C2=NNC(c3ccc(Cl)cc3Cl)C2)cc1 (stereo not drawn) | 4.427 | 37.4 µM (≈ 12.6 µg/mL)
48 | O=C1N=C(c2ccc([N+](=O)[O-])cc2)CC(c2cccc(Cl)c2)N1 (stereo not drawn) | 4.419 | 38 µM (≈ 12.5 µg/mL)
49 | COc1ccc(/C=C/C(=O)c2ccc([N+](=O)[O-])cc2)cc1OC |  | > 79.9 µM
50 | COc1ccc(C2CC(c3ccc([N+](=O)[O-])cc3)=NN2)cc1 (stereo not drawn) |  | > 339 µM
51 | O=C1N=C(c2ccc([N+](=O)[O-])cc2)CC(c2ccc(Cl)cc2)N1 (stereo not drawn) | 4.419 | 38 µM (≈ 12.5 µg/mL)
52 | COc1cc(C2CC(c3ccc([N+](=O)[O-])cc3)=NC(=O)N2)cc(OC)c1OC (stereo not drawn) | 3.585 | 260 µM (≈ 100 µg/mL)
